The text below walks through data of patent publication US20180237713A1, “Ionic Liquid, Lubricant, and Magnetic Recording Medium” (priority 2015, published 2018).

For data set [1] the following is noted: in acetonitrile; cited from earlier work.
Data set [2] is described as follows: Thermal stability measurement (TG/DTA weight reduction temperature). Particulars: for Weight reduction temperature 5% / Weight reduction temperature 10% / Weight reduction temperature 20%: TG/DTA, air 200 mL/min, 10° C./min, 30° C. to 600° C.
Data set [3] in a line: Solubility test of ionic liquid in fluorine-based solvent VERTREL XF. The conditions noted are these: for Solubility to fluorine-based solvent: VERTREL XF [CF3(CHF)2CF2CF3], 25° C., ultrasonic 5 minutes, left 1 day, visual; for Dissolved or not in fluorine-based solvent: VERTREL XF.
Procedure: A solubility test was performed on the ionic liquid synthesized each of Examples and each of Comparative Examples using VERTREL XF [CF3(CHF)2CF2CF3] available from Du Pont-Mitsui Fluorochemicals Company, Ltd. as a fluorine-based solvent.
The ionic liquid was added to the predetermined mass of VERTREL XF.
Specifically, 0.5 parts by mass or 0.1 parts by mass of each ionic liquid was added to 100 parts by mass of VERTREL XF (25° C.).
Note that, a case where the mixture was visually observed to be transparent, the ionic liquid was judged as being dissolved. A case where the mixture was not transparent or insoluble matter was observed, the ionic liquid was judged as not being dissolved (insoluble).
The ionic liquid was dissolved when 0.5 parts by mass of the ionic liquid was added.
The ionic liquid was not dissolved when 0.5 parts by mass of the ionic liquid was added, but the ionic liquid was dissolved when 0.1 parts by mass of the ionic liquid was added.
The ionic liquid was not dissolved both when 0.5 parts by mass of the ionic liquid was added and when 0.1 parts by mass of the ionic liquid was added.

For `F[B-](F)(F)F.[H+]` [tetrafluoroboric acid], the “pKa of acid that is a source of the conjugate base” value (“pKa” below) in data set [1] is recorded as 1.8.

For the compound `CCCCCCCCCCCCCCCCCC[N+]1=C2CCCCCN2CCC1.O=S(=O)([N-]S(=O)(=O)C(F)(F)C(F)(F)C(F)(F)C(F)(F)F)C(F)(F)C(F)(F)C(F)(F)C(F)(F)F` [Ex. 2A, bis(nonafluorobutanesulfonyl)imide-8-octadecyl-1,8-diazabicyclo[5.4.0]-7-undecenium], in data set [2], the “Weight reduction temperature 5%” value worked out at 341.1 °C, the “Weight reduction temperature 10%” value was 372.9 °C and the “Weight reduction temperature 20%” value came to 396.3 °C. Further, the “Thermal stability improved compared with perfluoropolyether Z-DOL or Z-TETRAOL by” value in data set [2] (difference to Z-DOL or Z-TETRAOL) was not below 100 °C. Also, the “Solubility to fluorine-based solvent” value in data set [3] is 0.5% by mass or greater. Moreover, the “Solubility to fluorine-based solvent” value in data set [3] (listed as Example 2A) is reported as not below 0.5 % by mass.

As to `CCCCCCCCCCCCCCCCCCN1CCCC1.O=S1(=O)NS(=O)(=O)C(F)(F)C(F)(F)C1(F)F` [Comp. Ex. 6A, hexafluorocyclopropane-1,3-bis(sulfonyl)imide-N-octadecylpyrrolidinium, reference compound], in data set [2], the “Weight reduction temperature 5%” value was determined as 336.4 °C, the “Weight reduction temperature 10%” value was 358.4 °C and the “Weight reduction temperature 20%” value is 379.4 °C. For the same compound, in data set [3], the “Solubility to fluorine-based solvent” value is reported as “less than 0.1% by mass”.

As for `CCCCCCCCCCCCCCCCCCn1cc[n+](CCCCCCCCC[n+]2ccn(CCCCCCCCCCCCCCCCCC)c2)c1.O=S(=O)([N-]S(=O)(=O)C(F)(F)C(F)(F)C(F)(F)C(F)(F)F)C(F)(F)C(F)(F)C(F)(F)C(F)(F)F.O=S(=O)([N-]S(=O)(=O)C(F)(F)C(F)(F)C(F)(F)C(F)(F)F)C(F)(F)C(F)(F)C(F)(F)C(F)(F)F` [Comp. Ex. 10A, 1,9-bis[bis(nonafluorobutanesulfonyl)imide-1-octadecylimidazolium]nonane, reference compound], in data set [2], the “Weight reduction temperature 5%” value came out at 355.1 °C, the “Weight reduction temperature 10%” value turned out to be 381.0 °C and the “Weight reduction temperature 20%” value worked out at 400.9 °C. Further, the “Solubility to fluorine-based solvent” value in data set [3] is reported as “less than 0.1% by mass”.

For the compound `O=S1(=O)NS(=O)(=O)C(F)(F)C(F)(F)C1(F)F` [hexafluorocyclopropane-1,3-bis(sulfonyl)imide], the “pKa” value in data set [1] is −0.8.

Turning to `CCCCCCCCCCCCCCCCCC[N+]1(CCCC)CCCC1.O=S(=O)([N-]S(=O)(=O)C(F)(F)C(F)(F)C(F)(F)C(F)(F)F)C(F)(F)C(F)(F)C(F)(F)C(F)(F)F` [Ex. 4A, bis(nonafluorobutanesulfonyl)imide-N-butyl-N-octadecylpyrrolidinium], in data set [2], the “Weight reduction temperature 5%” value was found to be 331.4 °C, the “Weight reduction temperature 10%” value stood at 360.2 °C and the “Weight reduction temperature 20%” value was 382.5 °C. For the same compound, in data set [3], the “Dissolved or not in fluorine-based solvent” value (“Dissolved or not” for short) is “could be dissolved” and the “Solubility to fluorine-based solvent” value is on record as 0.5% by mass or greater. Besides, the “Solubility to fluorine-based solvent” value in data set [3] (listed as Example 4A) is not below 0.5 % by mass.

On to `CCCCCCCCCCCCCCCCCCN1CCCN2CCCN=C12.O=S1(=O)NS(=O)(=O)C(F)(F)C(F)(F)C1(F)F` [Comp. Ex. 4A, hexafluorocyclopropane-1,3-bis(sulfonyl)imide-7-octadecyl-1,5,7-triazabicyclo[4.4.0]-5-decenium, reference compound], for which, in data set [2], the “Weight reduction temperature 5%” value was 288.4 °C, the “Weight reduction temperature 10%” value was 376.2 °C and the “Weight reduction temperature 20%” value amounted to 412.1 °C. Moreover, in data set [3], the “Dissolved or not” value is reported as “not dissolved” and the “Solubility to fluorine-based solvent” value is reported as “less than 0.1% by mass”.

As for `C[n+]1ccn(CCC(F)(F)C(F)(F)C(F)(F)C(F)(F)C(F)(F)C(F)(F)C(F)(F)C(F)(F)F)c1.O=S(=O)([N-]S(=O)(=O)C(F)(F)C(F)(F)C(F)(F)C(F)(F)F)C(F)(F)C(F)(F)C(F)(F)C(F)(F)F` [Ex. 9A, bis(nonafluorobutanesulfonyl)imide-1-1′H,1′H,2′H,2′H-heptadecafluorodecyl-3-methylimidazolium], in data set [2], the “Weight reduction temperature 5%” value turned out to be 350.3 °C, the “Weight reduction temperature 10%” value amounted to 365.5 °C and the “Weight reduction temperature 20%” value was 381.3 °C. Also, the “Solubility to fluorine-based solvent” value in data set [3] is reported as 0.5% by mass or greater. For the same compound, in data set [3] (listed as Example 9A), the “Solubility to fluorine-based solvent” value is given as not below 0.5 % by mass.

Consider `O=S(=O)(O)C(F)(F)C(F)(F)C(F)(F)C(F)(F)C(F)(F)C(F)(F)C(F)(F)C(F)(F)F` [heptadecafluorooctane sulfonic acid], for which the “pKa” value in data set [1] is reported as 0.7.

Consider `O=S(=O)(NS(=O)(=O)C(F)(F)C(F)(F)C(F)(F)C(F)(F)F)C(F)(F)C(F)(F)C(F)(F)C(F)(F)F` [bis(nonafluorobutanesulfonyl)imide], for which the “pKa” value in data set [1] is given as 0.0.

With `CCCCCCCCCCCCCCCCCCN1CCCC1.O=S(=O)(NS(=O)(=O)C(F)(F)C(F)(F)C(F)(F)C(F)(F)F)C(F)(F)C(F)(F)C(F)(F)C(F)(F)F` [Ex. 5A, bis(nonafluorobutanesulfonyl)imide-N-octadecylpyrrolidinium], in data set [2], the “Weight reduction temperature 5%” value was 312.6 °C, the “Weight reduction temperature 10%” value was 334.4 °C and the “Weight reduction temperature 20%” value was 355.5 °C. Also, in data set [3], the “Dissolved or not” value is on record as “could be dissolved” and the “Solubility to fluorine-based solvent” value is 0.5% by mass or greater. In data set [3] (listed as Example 5A), the “Solubility to fluorine-based solvent” value was not below 0.5 % by mass.

For the compound `O=S(=O)(C(S(=O)(=O)C(F)(F)F)S(=O)(=O)C(F)(F)F)C(F)(F)F` [tris(trifluoromethanesulfonyl)methide], the “pKa” value in data set [1] is −3.7.

Take “nonafluorobutanesulfonic acid-N-octadecylpyrrolidinium [Ex. 6A]”: the “Dissolved or not” value in data set [3] is “could be dissolved”.

As for `CCCCCCCCCCCCCCCCCCn1cc[n+](CCC[n+]2ccn(CCCCCCCCCCCCCCCCCC)c2)c1.O=S(=O)([N-]S(=O)(=O)C(F)(F)C(F)(F)C(F)(F)C(F)(F)F)C(F)(F)C(F)(F)C(F)(F)C(F)(F)F.O=S(=O)([N-]S(=O)(=O)C(F)(F)C(F)(F)C(F)(F)C(F)(F)F)C(F)(F)C(F)(F)C(F)(F)C(F)(F)F` [Ex. 11A], in data set [3], the “Solubility to fluorine-based solvent” value is recorded as 0.5% by mass or greater.

Regarding `CCCCCCCCCCCCCCCCCCC1CCCCN2CCCN=C12.O=S1(=O)NS(=O)(=O)C(F)(F)C(F)(F)C1(F)F` (centres unmarked) [Comp. Ex. 1A, hexafluorocyclopropane-1,3-bis(sulfonyl)imide-6-octadecyl-1,8-diazabicyclo[5.4.0]-7-undecenium, reference compound], in data set [2], the “Weight reduction temperature 5%” value came out at 346.3 °C, the “Weight reduction temperature 10%” value turned out to be 384.1 °C and the “Weight reduction temperature 20%” value worked out at 414.0 °C. The “Solubility to fluorine-based solvent” value in data set [3] is reported as “less than 0.1% by mass”.

With “heptadecafluorooctanesulfonic acid-6-octadecyl-1,8-diazabicyclo[5.4.0]-7-undecenium [Comp. Ex. 2A, reference compound]”, the “Solubility to fluorine-based solvent” value in data set [3] is “less than 0.1% by mass”.

With “bis(nonafluorobutanesulfonyl)imide-6-octadecyl-1,8-diazabicyclo[5.4.0]-7-undecene [Ex. 1A]”, in data set [2], the “Weight reduction temperature 5%” value worked out at 352.9 °C, the “Weight reduction temperature 10%” value came to 378.2 °C and the “Weight reduction temperature 20%” value came to 396.7 °C. Besides, the “Solubility to fluorine-based solvent” value in data set [3] is recorded as 0.5% by mass or greater. In addition, the “Solubility to fluorine-based solvent” value in data set [3] (listed as Example 1A) was not below 0.5 % by mass.

As for “heptadecafluorooctanesulfonic acid-7-octadecyl-1,5,7-triazabicyclo[4.4.0]-5-decenium [Comp. Ex. 5A, reference compound]”, in data set [3], the “Dissolved or not” value is listed as “not dissolved” and the “Solubility to fluorine-based solvent” value is recorded as “less than 0.1% by mass”.

With `CCCCCCCCCCCCCCCCCC[n+]1ccn(CCCC)c1.O=S(=O)([N-]S(=O)(=O)C(F)(F)C(F)(F)C(F)(F)C(F)(F)F)C(F)(F)C(F)(F)C(F)(F)C(F)(F)F` [Comp. Ex. 8A, bis(nonafluorobutanesulfonyl)imide-1-butyl-3-n-octadecylimidazolium, reference compound], in data set [2], the “Weight reduction temperature 5%” value is 347.2 °C, the “Weight reduction temperature 10%” value turned out to be 367.0 °C and the “Weight reduction temperature 20%” value was 387.8 °C. In addition, the “Solubility to fluorine-based solvent” value in data set [3] is “less than 0.1% by mass”.
